From ChEMBL document CHEMBL3120081, “Imidazopyridazine hepatitis C virus polymerase inhibitors. Structure-activity relationship studies and the discovery of a novel, traceless prodrug mechanism” (J Med Chem, 2014)
Values after ≈ are worked out from the molar mass of the structure shown. Blank lines part the entries; values can stand above or below the molecule they belong to.

Experiments:
[1] = tested on: Hepatitis C virus; assay: Antiviral activity against Hepatitis C virus genotype 1b infected in human HuH7 cells after 48 hrs by luciferase reporter gene assay; type: functional, organism-based, Hepacivirus hominis; conditions: Huh-7, 48 h
[2] = tested on: Hepatitis C virus; assay: Antiviral activity against Hepatitis C virus genotype 1a infected in human HuH7 cells after 48 hrs by luciferase reporter gene assay; type: functional, organism-based, Hepacivirus hominis; conditions: subtype 1a, Huh-7, 48 h
[3] = tested on: Hepatocyte; assay: Stability in rat hepatocytes assessed as 5-((2-(2,3-Difluorophenyl)-5H-imidazo[4,5-d]pyridazin-5-yl)-methyl)-3-(4-propoxy-2-(trifluoromethyl)phenyl)isoxazole level at 0.5 uM by LC/MS/MS analysis; type: ADME, cell-based
[4] = Stability of the compound in water assessed as 5-((2-(2,3-Difluorophenyl)-5H-imidazo[4,5-d]pyridazin-5-yl)-methyl)-3-(4-propoxy-2-(trifluoromethyl)phenyl)isoxazole level at 1 uM at pH 7 up to 60 mins by LC/MS/MS analysis; type: physicochemical; conditions: buffer, pH 7, 1 h
[5] = tested on: Hepatocyte; assay: Half life in rat hepatocytes assessed as 5-((2-(2,3-Difluorophenyl)-5H-imidazo[4,5-d]pyridazin-5-yl)-methyl)-3-(4-propoxy-2-(trifluoromethyl)phenyl)isoxazole level; type: ADME, cell-based
[6] = Stability of the compound in water assessed as 5-((2-(2,3-Difluorophenyl)-5H-imidazo[4,5-d]pyridazin-5-yl)-methyl)-3-(4-propoxy-2-(trifluoromethyl)phenyl)isoxazole level at 1 uM at pH 2 up to 60 mins by LC/MS/MS analysis; type: physicochemical; conditions: buffer, pH 2, 1 h
[7] = Half life in blood (unknown origin) assessed as 5-((2-(2,3-Difluorophenyl)-5H-imidazo[4,5-d]pyridazin-5-yl)-methyl)-3-(4-propoxy-2-(trifluoromethyl)phenyl)isoxazole level; type: ADME, tissue-based
[8] = Solubility of the compound in phosphate buffered saline at pH 7.4 after 1 hr by chemiluminescence nitrogen detection assay; type: physicochemical
[9] = Stability of the compound in blood (unknown origin) assessed as 5-((2-(2,3-Difluorophenyl)-5H-imidazo[4,5-d]pyridazin-5-yl)-methyl)-3-(4-propoxy-2-(trifluoromethyl)phenyl)isoxazole level at 1 uM up to 60 mins by LC/MS/MS analysis; type: ADME, tissue-based; conditions: 1 h
[10] = Stability in rat microsomes assessed as 5-((2-(2,3-Difluorophenyl)-5H-imidazo[4,5-d]pyridazin-5-yl)-methyl)-3-(4-propoxy-2-(trifluoromethyl)phenyl)isoxazole level at 0.5 uM by LC/MS/MS analysis; type: ADME, Microsome
[11] = AUC in CD rat at 1000 mg/kg by LC/MS/MS analysis; type: ADME, organism-based; set-up: dose 1000 mg/kg; conditions: plasma
[12] = Oral bioavailability in beagle dog at 5 mg/kg by LC/MS/MS analysis; type: ADME, organism-based, Canis lupus familiaris; conditions: in vivo
[13] = Oral bioavailability in CD rat at 5 mg/kg by LC/MS/MS analysis; type: ADME, organism-based; conditions: in vivo
[14] = tested on: Canis familiaris; assay: Hepatotoxicity in beagle dog at 10 to 600 mg/kg/day, po qd for 7 days; type: toxicity, organism-based, Canis lupus familiaris; set-up: route oral; conditions: in vivo, 168 h
[15] = tested on: Rattus norvegicus; assay: Toxicity in rat at 10 to 1000 mg/kg/day, po qd for 7 days; type: organism-based; set-up: route oral; conditions: in vivo, 168 h
[16] = Inhibition of Hepatitis C virus genotype 1b NS5B; set-up: species or system Hepatitis C virus subtype 1b
[17] = AUC in CD rat at 30 mg/kg by LC/MS/MS analysis; type: ADME, organism-based; set-up: dose 30 mg/kg; conditions: plasma
[18] = Clearance in CD rat at 0.5 mg/kg, iv by LC/MS/MS analysis; type: ADME, organism-based; set-up: dose 0.5 mg/kg, route intravenous; conditions: in vivo
[19] = Intrinsic clearance in beagle dog microsomes; type: ADME, Canis lupus familiaris, Microsome
[20] = Cytotoxicity against human HepG2 cells after 48 hrs by WST assay; type: cell-based
[21] = AUC in CD rat at 300 mg/kg by LC/MS/MS analysis; type: ADME, organism-based; set-up: dose 300 mg/kg; conditions: plasma
[22] = Volume of distribution in beagle dog at 1 mg/kg, iv by LC/MS/MS analysis; type: ADME, organism-based, Canis lupus familiaris; set-up: dose 1 mg/kg, route intravenous; conditions: in vivo
[23] = Half life in beagle dog at 1 mg/kg, iv by LC/MS/MS analysis; type: ADME, organism-based, Canis lupus familiaris; set-up: dose 1 mg/kg, route intravenous; conditions: in vivo
[24] = Cmax in CD rat at 100 mg/kg by LC/MS/MS analysis; type: ADME, organism-based; set-up: dose 100 mg/kg; conditions: in vivo
[25] = Cmax in CD rat at 10 mg/kg by LC/MS/MS analysis; type: ADME, organism-based; set-up: dose 10 mg/kg; conditions: in vivo
[26] = Cmax in CD rat at 300 mg/kg by LC/MS/MS analysis; type: ADME, organism-based; set-up: dose 300 mg/kg; conditions: in vivo
[27] = Volume of distribution in CD rat at 0.5 mg/kg, iv by LC/MS/MS analysis; type: ADME, organism-based; set-up: dose 0.5 mg/kg, route intravenous; conditions: in vivo
[28] = AUC in CD rat at 100 mg/kg by LC/MS/MS analysis; type: ADME, organism-based; set-up: dose 100 mg/kg; conditions: plasma
[29] = Cytotoxicity against human HuH7 cells after 48 hrs by WST assay; type: cell-based, Huh-7
[30] = target: T1, Voltage-gated inwardly rectifying potassium channel KCNH2 (Homo sapiens, UniProt Q12809); assay: Inhibition of human ERG expressed in HEK293 cells; type: cell-based
T1 sequence (Q12809 whole entry): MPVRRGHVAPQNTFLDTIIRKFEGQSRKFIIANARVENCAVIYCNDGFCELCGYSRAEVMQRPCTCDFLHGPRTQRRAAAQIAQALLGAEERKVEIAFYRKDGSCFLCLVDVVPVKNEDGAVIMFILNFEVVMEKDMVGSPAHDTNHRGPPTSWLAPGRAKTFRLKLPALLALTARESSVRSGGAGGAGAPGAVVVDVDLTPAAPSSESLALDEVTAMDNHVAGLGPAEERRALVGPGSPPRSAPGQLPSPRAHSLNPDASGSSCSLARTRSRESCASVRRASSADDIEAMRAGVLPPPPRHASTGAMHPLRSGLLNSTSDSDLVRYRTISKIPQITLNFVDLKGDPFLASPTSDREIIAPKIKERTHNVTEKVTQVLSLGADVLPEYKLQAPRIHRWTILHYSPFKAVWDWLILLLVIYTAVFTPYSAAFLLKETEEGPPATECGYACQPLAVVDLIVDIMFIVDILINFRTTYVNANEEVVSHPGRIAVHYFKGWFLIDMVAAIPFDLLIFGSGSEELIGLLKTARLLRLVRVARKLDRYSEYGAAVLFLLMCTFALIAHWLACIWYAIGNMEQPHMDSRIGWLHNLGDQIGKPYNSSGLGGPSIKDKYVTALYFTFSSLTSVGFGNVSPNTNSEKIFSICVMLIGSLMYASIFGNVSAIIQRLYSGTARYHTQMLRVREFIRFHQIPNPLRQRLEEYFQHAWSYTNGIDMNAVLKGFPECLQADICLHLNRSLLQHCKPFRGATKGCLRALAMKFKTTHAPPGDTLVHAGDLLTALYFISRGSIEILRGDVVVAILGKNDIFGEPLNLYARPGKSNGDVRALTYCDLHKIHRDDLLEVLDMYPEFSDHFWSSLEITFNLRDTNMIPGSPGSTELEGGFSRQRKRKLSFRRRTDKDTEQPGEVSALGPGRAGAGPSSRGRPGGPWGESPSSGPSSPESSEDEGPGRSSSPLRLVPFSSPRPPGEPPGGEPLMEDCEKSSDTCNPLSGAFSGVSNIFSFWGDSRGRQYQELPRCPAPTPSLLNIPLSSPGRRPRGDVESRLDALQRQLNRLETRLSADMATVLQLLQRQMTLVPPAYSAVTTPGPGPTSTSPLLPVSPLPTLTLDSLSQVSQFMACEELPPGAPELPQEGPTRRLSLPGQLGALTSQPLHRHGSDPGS

[31] = Plasma protein binding in human at 5 uM after 4 hrs by rapid equilibrium dialysis technique; type: ADME, cell-free; conditions: read-out: PPB (converted)
[32] = Half life in CD rat at 0.5 mg/kg, iv by LC/MS/MS analysis; type: ADME, organism-based; set-up: dose 0.5 mg/kg, route intravenous; conditions: in vivo
[33] = Inhibition of Hepatitis C virus genotype 1b NS3; set-up: species or system Hepatitis C virus subtype 1b
[34] = AUC in beagle dog at 1 mg/kg, po by LC/MS/MS analysis; type: ADME, organism-based, Canis lupus familiaris; set-up: dose 1 mg/kg, route oral; conditions: plasma
[35] = AUC in CD rat at 1 mg/kg, po by LC/MS/MS analysis; type: ADME, organism-based; set-up: dose 1 mg/kg, route oral; conditions: plasma
[36] = Intrinsic clearance in CD rat microsomes; type: ADME, Microsome
[37] = Cmax in CD rat at 30 mg/kg by LC/MS/MS analysis; type: ADME, organism-based; set-up: dose 30 mg/kg; conditions: in vivo
[38] = Cytotoxicity against human MT4 cells after 48 hrs by WST assay; type: cell-based
[39] = Oral bioavailability in CD rat at 1 mg/kg by LC/MS/MS analysis; type: ADME, organism-based; conditions: in vivo
[40] = Oral bioavailability in beagle dog at 1 mg/kg by LC/MS/MS analysis; type: ADME, organism-based, Canis lupus familiaris; conditions: in vivo
[41] = Aqueous solubility of the compound at pH 6.8; type: physicochemical
[42] = AUC in CD rat at 10 mg/kg by LC/MS/MS analysis; type: ADME, organism-based; set-up: dose 10 mg/kg; conditions: plasma
[43] = Clearance in beagle dog at 1 mg/kg, iv by LC/MS/MS analysis; type: ADME, organism-based, Canis lupus familiaris; set-up: dose 1 mg/kg, route intravenous; conditions: in vivo
[44] = target: T1, Voltage-gated inwardly rectifying potassium channel KCNH2; assay: Inhibition of human ERG expressed in CHO cells

- EC50 [1]: > 50000 nM
SMILES: Fc1cccc(-c2nc3cnn(Cc4cc(-c5ccc(C(F)(F)F)cc5C(F)(F)F)no4)cc-3n2)c1

- EC50 [2]: 5400 nM
- EC50 [1]: 1500 nM
SMILES: CC(C)(c1cc(-c2ccc(C(F)(F)F)cc2C(F)(F)F)no1)n1cc2nc(-c3cccc(F)c3F)nc-2cn1

- Stability [3]: Stable
- Stability [4]: Stable
- t1/2 [5]: 0.25 h
- Stability [6]: Stable
- t1/2 [7]: 0.25 h
- solubility kinetic at 1 h [8]: 17 µM (≈ 9.75 µg/mL)
- EC50 [2]: 21 nM
- EC50 [1]: 3 nM
- Stability [9]: Stable
- Stability [10]: Stable
- AUC [11]: 118000 ng·h/mL
- bioavailability [12]: 51%
- bioavailability [13]: 80%
SMILES: CCCOc1ccc(-c2cc(C(C(=O)OC)n3cc4nc(-c5cccc(F)c5F)nc-4cn3)on2)c(C(F)(F)F)c1 (stereo not given)

- solubility kinetic at 1 h [8]: 14 µM (≈ 8.65 µg/mL)
- EC50 [2]: 23 nM
- EC50 [1]: 6 nM
- AUC [11]: 64000 ng·h/mL
- bioavailability [12]: 63%
- bioavailability [13]: 91%
SMILES: CCCOc1ccc(-c2cc(C(C(=O)OCCCO)n3cc4nc(-c5cccc(F)c5F)nc-4cn3)on2)c(C(F)(F)F)c1 (stereo not given)

- IC50 [16]: > 50000 nM
- AUC [17]: 98000 ng·h/mL
- clearance [18]: 3 mL/min/kg
- CLint scaled [19]: < 10 mL/min/kg
- AUC [21]: 31000 ng·h/mL
- Vd [22]: 0.83 L/kg
- half-life [23]: 6.9 h
- EC50 [2]: 120 nM
- EC50 [1]: 16 nM
- Cmax [24]: 7400 ng/mL
- Cmax [25]: 1900 ng/mL
- Cmax [26]: 2900 ng/mL
- Vd [27]: 0.57 L/kg
- AUC [28]: 102000 ng·h/mL
- fraction unbound at 4 h, 5 µM [31]: 0.002
- half-life [32]: 3.1 h
- IC50 [33]: > 50000 nM
- AUC [34]: 2000 ng·h/mL
- AUC [35]: 6300 ng·h/mL
- CLint scaled [36]: < 10 mL/min/kg
- Cmax [37]: 7200 ng/mL
- bioavailability [39]: 109%
- bioavailability [40]: 18.8%
- solubility [41]: < 0.01 µg/mL
- AUC [42]: 25000 ng·h/mL
- clearance [43]: 2.7 mL/min/kg
SMILES: Fc1cccc(-c2nc3cnn(Cc4cc(-c5ccc(C(F)(F)F)cc5C(F)(F)F)no4)cc-3n2)c1F
- CC50 at 48 h [20]: > 50000 nM
- CC50 at 48 h [29]: > 50000 nM
- IC50 [30]: > 50100 nM
- CC50 at 48 h [38]: > 50000 nM

- EC50 [1]: 300 nM
SMILES: Fc1cccc(-c2nc3cnn(Cc4cc(-c5ccc(C(F)(F)F)nc5)no4)cc-3n2)c1F

- EC50 [2]: 70 nM
- EC50 [1]: 24 nM
SMILES: Fc1cccc(-c2nc3cnn(Cc4cc(-c5ccc(C(F)(F)F)cc5)no4)cc-3n2)c1F

Further lines, the molecule ahead of its results:

SMILES: CCCOc1ccc(-c2cnc(Cn3cc4nc(-c5cccc(F)c5F)nc-4cn3)nc2)c(C(F)(F)F)c1
- EC50 [2]: 300 nM
- EC50 [1]: 240 nM

SMILES: CCCOc1ccc(-c2cc(C(C(=O)OCCOCCO)n3cc4nc(-c5cccc(F)c5F)nc-4cn3)on2)c(C(F)(F)F)c1 (stereo not given)
- Activity [14]: Toxic
- solubility kinetic at 1 h [8]: 24 µM (≈ 15.5 µg/mL)
- EC50 [2]: 11 nM
- Activity [15]: Non-toxic
- EC50 [1]: 3 nM
- AUC [11]: 325000 ng·h/mL
- bioavailability [12]: 91%
- bioavailability [13]: 98%

SMILES: Fc1ccccc1-c1nc2cnn(Cc3cc(-c4ccc(Cl)cc4)no3)cc-2n1
- EC50 [1]: 170 nM

SMILES: Fc1ccccc1-c1nc2ccn(Cc3cc(-c4ccc(C(F)(F)F)cc4C(F)(F)F)no3)cc-2n1
- IC50 [44]: 794 nM

SMILES: CCCOc1cnc(-c2cc(Cn3cc4nc(-c5cccc(F)c5F)nc-4cn3)on2)cn1
- EC50 [2]: 1400 nM
- EC50 [1]: 220 nM

SMILES: COc1ncc(-c2cc(Cn3cc4nc(-c5cccc(F)c5F)nc-4cn3)on2)cn1
- EC50 [2]: > 50000 nM
- EC50 [1]: > 50000 nM

SMILES: CCCCc1ccc(-c2cc(Cn3cc4nc(-c5cccc(F)c5F)nc-4cn3)on2)cc1
- EC50 [2]: 80 nM
- EC50 [1]: 10 nM

SMILES: Cc1ccc(-c2cc(Cn3cc4nc(-c5cccc(F)c5F)nc-4cn3)on2)cc1
- EC50 [2]: 110 nM
- EC50 [1]: 23 nM
